# Data reported in patent publication US9487510B2, “Substituted heterocyclic acetamides as kappa opioid receptor (KOR) agonists” (Dr. Reddy's Laboratories Ltd., priority 2012, dated 2016).
# Counter-ions that a name gives are not always drawn.
# Target: human KOR receptor (Homo sapiens, UniProt P41145)
# Assay: IP-One HTRF assay, potency of KOR agonists, dose-response in transiently transfected COS-7 cells
# Type: cell-based
# Chain of human KOR receptor (P41145 whole entry): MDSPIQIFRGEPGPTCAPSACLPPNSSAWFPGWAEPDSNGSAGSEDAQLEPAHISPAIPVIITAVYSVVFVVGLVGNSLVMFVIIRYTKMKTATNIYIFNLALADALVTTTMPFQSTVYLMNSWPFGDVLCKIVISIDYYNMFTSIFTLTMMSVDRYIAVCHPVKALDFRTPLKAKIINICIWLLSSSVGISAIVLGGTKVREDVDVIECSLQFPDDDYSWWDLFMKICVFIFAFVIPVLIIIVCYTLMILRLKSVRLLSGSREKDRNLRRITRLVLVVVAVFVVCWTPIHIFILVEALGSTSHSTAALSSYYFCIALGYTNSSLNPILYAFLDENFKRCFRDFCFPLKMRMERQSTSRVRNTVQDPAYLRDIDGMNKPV
row,Structure (SMILES),EC50
1,"CN(C(=O)Cc1ccc2c(c1)NC(=O)CS2(=O)=O)[C@H](CN1CC[C@H](O)C1)C1CCCCC1 [Example 125, N-((S)-1-cyclohexyl-2-((S)-3-hydroxypyrrolidin-1-yl)ethyl)-2-(1,1-dioxido-3-oxo-3,4-dihydro-2H-benzo [b][1,4]thiazin-6-yl)-N-methylacetamide]",≤ 50 nM
2,"CN(C(=O)Cc1ccc2c(c1)N(C)S(=O)(=O)C2)[C@H](CN1CC[C@H](O)C1)c1cccc(OCC(=O)O)c1 [Example 80, 2-(3-((S)-2-((S)-3-hydroxypyrrolidin-1-yl)-1-(N-methyl-2-(1-methyl-2,2-dioxido-1,3-dihydrobenzo[c]isothiazol-6-yl)acetamido)ethyl)phenoxy)acetic acid]",≤ 50 nM
3,"CN(C(=O)Cc1ccc2c(c1)NS(=O)(=O)C2)[C@H](CN1CC[C@H](O)C1)c1cccc(-c2ncc[nH]2)c1 [Example 202, N-((S)-1-(3-(1H-imidazol-2-yl)phenyl)-2-((S)-3-hydroxypyrrolidin-1-yl)ethyl)-2-(2,2-dioxido-1,3-dihydrobenzo[c]isothiazol-6-yl)-N-methylacetamide]",51 to 100 nM
4,"CN(C(=O)Cc1ccc2c(c1)NC(=O)CS2(=O)=O)[C@H](CN1CC[C@H](O)C1)c1cc(F)cc(OCC(F)(F)F)c1 [Example 149, 2-(1,1-dioxido-3-oxo-3,4-dihydro-2H-benzo[b][1,4]thiazin-6-yl)-N-((S)-1-(3-fluoro-5-(2,2,2-trifluoroethoxy)phenyl)-2-((S)-3-hydroxypyrrolidin-1-yl)ethyl)-N-methylacetamide]",≤ 50 nM
5,"CN(C(=O)Cc1ccc2c(c1)NC(=O)C2)C(CN1CC[C@H](O)C1)c1cccc(OCC(=O)O)c1 (stereo partly drawn) [Example 95, (S)-2-(3-(2-(3-hydroxypyrrolidin-1-yl)-1-(N-methyl-2-(2-oxoindolin-6-yl)acetamido)ethyl)phenoxy) acetic acid hydrochloride]",≤ 50 nM
6,"CN(C(=O)Cc1ccc2c(c1)CC(=O)N2)[C@H](CN1CC[C@H](O)C1)c1cccc(OCC(=O)O)c1 [Example 169, 2-(3-((S)-2-((S)-3-hydroxypyrrolidin-1-yl)-1-(N-methyl-2-(2-oxoindolin-5-yl)acetamido)ethyl)phenoxy)acetic acid]",≤ 50 nM
7,"CN(C(=O)Cc1ccc2sc(=O)[nH]c2c1)[C@H](CN1CC[C@H](O)C1)c1cccc(-c2ncc[nH]2)c1 [Example 191, N-((S)-1-(3-(1H-imidazol-2-yl)phenyl)-2-((S)-3-hydroxypyrrolidin-1-yl)ethyl)-N-methyl-2-(2-oxo-2,3-dihydrobenzo[d]thiazol-5-yl)acetamide]",≤ 50 nM
8,"CCN(C(=O)Cc1ccc2c(c1)NC(=O)CS2(=O)=O)[C@H](CN1CC[C@H](O)C1)c1cccc(OC(F)(F)F)c1 [Example 14, 2-(1,1-dioxido-3-oxo-3,4-dihydro-2H-benzo[b][1,4]thiazin-6-yl)-N-ethyl-N-((S)-2-((S)-3-hydroxypyrrolidin-1-yl)-1-(3-(trifluoromethoxy)phenyl)ethyl)acetamide]",≥ 1000 nM
9,"Cc1csc(-c2cccc([C@@H](CN3CC[C@H](O)C3)N(C)C(=O)Cc3ccc4c(c3)NC(=O)C4)c2)n1 [Example 218, N-((S)-2-((S)-3-hydroxypyrrolidin-1-yl)-1-(3-(4-methylthiazol-2-yl)phenyl)ethyl)-N-methyl-2-(2-oxoindolin-6-yl)acetamide]",≤ 50 nM
10,"Cc1cnc(-c2cccc([C@@H](CN3CC[C@H](O)C3)N(C)C(=O)Cc3ccc4c(c3)NC(=O)C4)c2)s1 [Example 215, N-((S)-2-((S)-3-hydroxypyrrolidin-1-yl)-1-(3-(5-methylthiazol-2-yl)phenyl)ethyl)-N-methyl-2-(2-oxoindolin-6-yl)acetamide]",≤ 50 nM
11,O=C1CS(=O)(=O)c2ccc(CC(=O)N(C3CC3)[C@H](CN3CC[C@H](O)C3)c3cccc(OC(F)(F)F)c3)cc2N1 [Example 139],≤ 50 nM
12,"CN(C(=O)Cc1ccc2c(c1)NC(=O)CS2(=O)=O)[C@H](CN1CC[C@H](O)C1)c1cccc(OCC(N)=O)c1 [Example 168, N-((S)-1-(3-(2-amino-2-oxoethoxy)phenyl)-2-((S)-3-hydroxypyrrolidin-1-yl)ethyl)-2-(1,1-dioxido-3-oxo-3,4-dihydro-2H-benzo[b][1,4]thiazin-6-yl)-N-methylacetamide]",≤ 50 nM
13,"CN(C(=O)Cc1ccc2c(c1)NC(=O)C2)[C@H](CN1CC[C@H](F)C1)c1cccc(C(N)=O)c1 [Example 165, 3-((S)-2-((S)-3-fluoropyrrolidin-1-yl)-1-(N-methyl-2-(2-oxoindolin-6-yl)acetamido)ethyl)benzamide]",101 to 1000 nM
14,"C#Cc1cccc([C@@H](CN2CC[C@H](O)C2)N(C)C(=O)Cc2ccc3c(c2)NC(=O)C3)c1 [Example 180, N-((S)-1-(3-ethynylphenyl)-2-((S)-3-hydroxypyrrolidin-1-yl)ethyl)-N-methyl-2-(2-oxoindolin-6-yl)acetamide]",≤ 50 nM
15,"CN(C(=O)Cc1ccc2c(c1)CS(=O)(=O)N2)[C@H](CN1CC[C@H](O)C1)c1ccccc1 [Example 10, 5-(2-(((S)-2-((S)-3-hydroxypyrrolidin-1-yl)-1-phenylethyl)(methyl)amino)-2-oxoethyl)-1,3-dihydrobenzo[c]isothiazol-1-ium 2,2-dioxide 2,2,2-trifluoroacetate]",101 to 1000 nM
16,"CN(C(=O)Cc1ccc2c(c1)NC(=O)C2)[C@H](CN1CC[C@H](O)C1)c1cccc(-c2nccs2)c1 [Example 36, N-((S)-2-((S)-3-hydroxypyrrolidin-1-yl)-1-(3-(thiazol-2-yl)phenyl)ethyl)-N-methyl-2-(2-oxoindolin-6-yl)acetamide]",51 to 100 nM
17,"COc1cccc([C@@H](CN2CC[C@H](O)C2)N(C)C(=O)Cc2ccc3c(c2)NC(=O)CS3)c1 [Example 131, N-((S)-2-((S)-3-hydroxypyrrolidin-1-yl)-1-(3-methoxyphenyl)ethyl)-N-methyl-2-(3-oxo-3,4-dihydro-2H-benzo[b][1,4]thiazin-6-yl)acetamide]",≤ 50 nM
18,"CN(C(=O)Cc1ccc2sc(=O)[nH]c2c1)[C@H](CN1CC[C@H](O)C1)c1cccc(C(N)=O)c1 [Example 19, 3-((S)-2-((S)-3-hydroxypyrrolidin-1-yl)-1-(N-methyl-2-(2-oxo-2,3-dihydrobenzo [d]thiazol-5-yl)acetamido)ethyl)benzamide]",≤ 50 nM
19,"O=C(Cc1ccc2sc(=S)[nH]c2c1)N[C@H](CN1CC[C@H](O)C1)c1ccccc1 [Example 118, N-((S)-2-((S)-3-hydroxypyrrolidin-1-yl)-1-phenylethyl)-2-(2-thioxo-2,3-dihydrobenzo[d]thiazol-5-yl)acetamide]",≤ 50 nM
20,"Cc1nc(-c2cccc([C@@H](CN3CC[C@H](O)C3)N(C)C(=O)Cc3ccc4c(c3)NC(=O)C4)c2)cs1 [Example 220, N-((S)-2-((S)-3-hydroxypyrrolidin-1-yl)-1-(3-(2-methylthiazol-4-yl)phenyl)ethyl)-N-methyl-2-(2-oxoindolin-6-yl)acetamide]",≤ 50 nM
21,"O=C(Cc1ccc2oc(=O)[nH]c2c1)NC(CN1CCCC1)c1cnn(Cc2ccccc2)c1 (stereo not drawn) [Example 62, N-(1-(1-benzyl-1H-pyrazol-4-yl)-2-(pyrrolidin-1-yl)ethyl)-2-(2-oxo-2,3-dihydrobenzo[d]oxazol-5-yl)acetamide]",≤ 50 nM
22,"CN(C(=O)Cc1ccc2c(c1)CC(=O)N2)C(CN1CCC(O)C1)c1ccccc1 (stereo in doubt) [Example 161, N-((S)-2-((S)-3-hydroxypyrrolidin-1-yl)-1-phenylethyl)-N-methyl-2-(2-oxoindolin-5-yl)acetamide]",≤ 50 nM
23,"CCN(CC)C(=O)c1cccc([C@@H](CN2CC[C@H](O)C2)N(C)C(=O)Cc2ccc3c(c2)NC(=O)C3)c1 [Example 39, N,N-diethyl-3-((S)-2-((S)-3-hydroxypyrrolidin-1-yl)-1-(N-methyl-2-(2-oxoindolin-6-yl)acetamido)ethyl)benzamide]",≤ 50 nM
24,"CN(C(=O)Cc1ccc2c(c1)NC(=O)C2)[C@H](CN1CC[C@H](O)C1)c1cccc(-c2nccn2C)c1 [Example 213, N-((S)-2-((S)-3-hydroxypyrrolidin-1-yl)-1-(3-(1-methyl-1H-imidazol-2-yl)phenyl)ethyl)-N-methyl-2-(2-oxoindolin-6-yl)acetamide]",≤ 50 nM
25,"CN(C(=O)Cc1ccc2c(c1)S(=O)(=O)NC2=O)[C@H](CN1CC[C@H](O)C1)c1ccccc1 [Example 8, 2-(1,1-dioxido-3-oxo-2,3-dihydrobenzo[d]isothiazol-6-yl)-N-((S)-2-((S)-3-hydroxypyrrolidin-1-yl)-1-phenylethyl)-N-methylacetamide]",≥ 1000 nM
26,"CN(C(=O)Cc1ccc2c(c1)NS(=O)(=O)C2)[C@H](CN1CC[C@H](O)C1)c1cccc(-c2ncon2)c1 [Example 186, N-((S)-1-(3-(1,2,4-oxadiazol-3-yl)phenyl)-2-((S)-3-hydroxypyrrolidin-1-yl)ethyl)-2-(2,2-dioxido-1,3-dihydrobenzo[c]isothiazol-6-yl)-N-methylacetamide]",≤ 50 nM
27,"CN(C(=O)Cc1ccc2c(c1)N(Cc1ccccc1)S(=O)(=O)C2)[C@H](CN1CC[C@H](O)C1)c1ccccc1 [Example 135, 2-(1-benzyl-2,2-dioxido-1,3-dihydrobenzo[c]isothiazol-6-yl)-N-((S)-2-((S)-3-hydroxypyrrolidin-1-yl)-1-phenylethyl)-N-methylacetamide]",≤ 50 nM
28,"CN(C(=O)Cc1ccc2c(c1)NC(=O)CO2)[C@H](CN1CC[C@H](O)C1)c1cccc(C(=O)O)c1 [Example 155, 3-((S)-2-((S)-3-hydroxypyrrolidin-1-yl)-1-(N-methyl-2-(3-oxo-3,4-dihydro-2H-benzo[b][1,4]oxazin-6-yl)acetamido)ethyl)benzoic acid]",≤ 50 nM
29,"CN(C(=O)Cc1ccc2c(c1)NC(=O)C2)[C@H](CN1CC[C@H](O)C1)c1cccc(-c2nnn(C)n2)c1 [Example 44, N-((S)-2-((S)-3-hydroxypyrrolidin-1-yl)-1-(3-(2-methyl-2H-tetrazol-5-yl)phenyl)ethyl)-N-methyl-2-(2-oxoindolin-6-yl)acetamide]",51 to 100 nM
30,"CN(C(=O)Cc1ccc2c(c1)NC(=O)CS2(=O)=O)[C@H](CN1CC[C@H](O)C1)c1cccc(C#N)c1 [Example 6, N-((S)-1-(3-cyanophenyl)-2-((S)-3-hydroxypyrrolidin-1-yl)ethyl)-2-(1,1-dioxido-3-oxo-3,4-dihydro-2H-benzo[b][1,4]thiazin-6-yl)-N-methylacetamide]",≤ 50 nM
